In PMC8838521, “Antimicrobial, Cytotoxic and Mutagenic Activity of Gemini QAS Derivatives of 1,4:3,6-Dianhydro-L-iditol” (Molecules, 2022):
“And” between values parts separate entries of the source, which are not always exact repeats. Identical values can stand only once. “Also recorded” adds a separate entry of the source.

Legend:
[1] = Solubility observed during assays; format: physicochemical; conditions: for Solubility in water and DMSO: for Ames test; for Solubility in water: observed during antimicrobial assays, DMSO used for solubilisation
[2] = tested on: Staphylococcus aureus ATCC 25923; assay: Antimicrobial activity, microdilution MIC, S. aureus reference strain; format: cell-based; conditions: Staphylococcus aureus, ATCC25923, 24 h, MIC90, 24 h, MHB2; read-out: MIC S. aureus ATCC 25923
Protocol: (§1) The antimicrobial potential of the tested agents was evaluated against two reference strains of bacteria: Staphylococcus aureus ATCC 25923 and Escherichia coli K12, two reference strains of pathogenic yeasts, Candida albicans ATCC10231 and Candida glabrata DSMZ11226, as well as 20 strains of clinical isolates of S. aureus collected from patients with skin and soft tissue infections (n = 8) and strains derived from subclinical bovine mastitis milk samples (n = 12). Four of these strains, two isolated from human infections and two isolated from bovine mastitis, were classified as MRSA (Methicillin-resistant Staphylococcus aureus). All of them were mecA positive and their methicillin resistance was confirmed with the disc diffusion assay. The remaining 16 strains were MSSA (Methicillin-sensitive Staphylococcus aureus). The assays were performed using a serial, two-fold dilution method in 96-well microtiter plates under conditions recommended by the Clinical and Laboratory Standards Institute (CLSI, Pittsburgh, PA, USA). The aim of this procedure was the determination of the MIC parameter (Minimum Inhibitory Concentration)—the minimum concentration of a tested agent capable to inhibit the growth of a specified strain of microorganism. The agents were solubilized in deionized, sterile water to a final concentration of […]. Subsequently, solutions were mixed (1:1 (v/v)) with 2 × concentrated liquid medium, Mueller-Hinton Broth 2—cation adjusted (MHB2) for evaluation of antibacterial activity and RPMI in the case of evaluation of the antifungal activity. […] Subsequently, the solutions were mixed with MHB2 or RPMI medium to get the final concentration of 8.192 mg/mL (8192 µg/mL). In the next step, the serial, two-fold dilutions of the tested agents (over the range of concentrations from 8192 to 8 µg/mL for reference strains of bacteria and yeasts and from 512 to 1.0 µg/mL for clinical isolates of S. aureus) were prepared in 96-well microtitration plates in the final volume of 100 μL of the appropriate medium.
(§2) The pure bacterial cultures of (both the reference and clinical strains) were grown on the Mueller-Hinton Agar (MHA) for 18–24 h at 37 °C. A small amount of the biomass of the culture of each strain of microorganisms was suspended in the sterile PBS (phosphate buffered saline, pH 7.4 at 25 °C, purchased from Sigma) solution to get an optical density OD600 = 0.13 (equal to the cells concentration approximately 1 × 10^8 CFU/mL). The obtained suspensions of the cells were next diluted 1:100 (v/v) in the MHB2 medium. One hundred µL of the cells’ suspension was finally loaded into the wells of plates prepared in advance, which contained 100 µL of two-fold dilutions of the tested agents (the final concentration of the bacterial cells in all wells was approximately 5 × 10^5 CFU/mL).
(§3) The pure cultures of yeast strains were grown on the Sabouraud Dextrose Agar (SDA) for 18–24 h at 37 °C. Suspensions of the microorganisms were prepared by taking one loop of pure culture into sterile water and adjusting optical density to 0.1 at 660 nm and further 50-fold dilution in RPMI 1640 medium resulting in cells concentration of approximate 2 × 10^4 CFU/mL. One hundred μL of that suspension was inoculated to the wells of the microtitration plate containing appropriate dilutions of the agents. The positive growth control of each strain (both bacteria and yeasts) was performed in the wells without the tested substances. The negative control containing only the media was included in each assay. Microtiter plates were incubated at 37 °C for 24 h. Following the incubation period, determination of the MIC values of the tested agents was carried out by measuring the absorbance at 531 nm using a Victor^3 microplate reader (Perkin Elmer, Inc., Waltham, MA, USA). The lowest concentration of the agent causing inhibition of growth equal to or higher than 90% (MIC90) of growth control was taken as the MIC value. Each test was repeated three times. […]

[3] = tested on: human keratinocytes (HaCaT cell line); assay: Cytotoxicity, MTT assay; format: cell-based; conditions: Homo sapiens, HaCaT; MTT, 24 h incubation; read-out: HaCaT IC50
Protocol: To assess the cytotoxicity of QAS (IC50), the MTT assay on 96-well polystyrene plates was performed for human keratinocytes (HaCaT, Elabscience Biotechnology Inc., Houston, Texas, USA). The assay utilizes colorimetric determination of the cell metabolic activity and the color intensity reflects the number of live cells that can be measured spectrophotometrically. The cell line was cultured in a Dulbecco’s modified Eagle Medium (Invitrogen) supplemented with 10% fetal bovine serum (Sigma Aldrich) (v/v), 100 units/mL of penicillin, 100 μg/mL of streptomycin, and 2 mM L-glutamine and was stored at 37 °C in a humidified 5% CO2 incubator. Briefly, a day after plating of 500 cells per well, a series of concentrations (0.5–200 μg/mL) of the test compounds was applied. DMSO was added to the control cells at a final concentration of 1.0% (v/v), which was related to the maximal concentration of the solvent compounds used in the experiment. After 24 h of incubation with the QAS at 37 °C (humidified 5% CO2 incubator), a medium containing 1 mg/mL of MTT (3-(4,5-dimethylthiazol-2-yl)-2,5-diphenyltetrazolium bromide) was added to the wells up to a final concentration of 0.5 mg/mL. Subsequently, the plates were incubated at 37 °C for 4 h. Then, the medium was removed by suction, and the formazan product was solubilized with DMSO. The background absorbance at 630 nm was subtracted from that at 570 nm for each well (Epoch, BioTek Instruments, Winooski, VT, USA). Six replicates were conducted for each concentration. All experiments were repeated at least twice and the resulting IC50 values were calculated with GraFit 7 software (v. 7.0, Erithacus, Berkley, CA, USA).

Escherichia coli K12 = assay: Antimicrobial activity, microdilution MIC, E. coli; format: cell-based; conditions: Escherichia coli, K12, 24 h, MIC90, 24 h, MHB2; read-out: MIC E. coli K12
Protocol: as §1, §2, §3

| Compound | Solubility in water and DMSO [1] | Solubility in water [1] | MIC [2] | IC50 [3] [µg/mL] | MIC (Escherichia coli K12) |
| --- | --- | --- | --- | --- | --- |
| CCCCCCCCCC[N+](C)(C)C1COC2C1OCC2[N+](C)(C)CCCCCCCCCC [QAS 10, N,N’-(1,4:3,6-Dianhydro-2,5-dideoxy-L-iditol-2,5-diyl)-bis(N,N-dimethyl-N-decylammonium) Ditrifluoromethanesulfonate] | insufficient solubility in both water and DMSO | suppressed water solubility; also recorded: lower solubility in water | 8 µg/mL and 10 µM | 12.8 ± 1.25 | 32 µg/mL and 40 µM |
| CCCCCCCC[N+](C)(C)C1COC2C1OCC2[N+](C)(C)CCCCCCCC (stereo not shown) [QAS 9] | insufficient solubility in both water and DMSO | suppressed water solubility; also recorded: lower solubility in water | 128 µg/mL and 176 µM | > 100 | 2050 µg/mL and 2820 µM |
